PubChem BioAssay (NCI)
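Step 1: Grow cells in 96-well plates. Step 2: Expose to compound for 48 hours at 5 concentrations. Step 3: Interpolate endpoints linearly; if unreached, use highest concentration. At the GI50, growth is halved. Definition used: TGI = concentration required for complete inhibition of growth.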

Tests used:
Test in all cases: DTP human tumour cell line panel, 48 h
UACC-257 melanoma = tested on: UACC-257 melanoma
BT-549 breast = tested on: BT-549 breast
HS 578T breast = tested on: HS 578T breast
SW-620 colon = tested on: SW-620 colon
SK-OV-3 ovarian = tested on: SK-OV-3 ovarian
MDA-MB-231 breast = tested on: MDA-MB-231 breast
T-47D breast = tested on: T-47D breast
UO-31 renal = tested on: UO-31 renal
U251 CNS = tested on: U251 CNS
RXF 393 renal = tested on: RXF 393 renal
NCI/ADR-RES ovarian = tested on: NCI/ADR-RES ovarian
TK-10 renal = tested on: TK-10 renal
OVCAR-3 ovarian = tested on: OVCAR-3 ovarian
SR leukemia = tested on: SR leukemia
MALME-3M melanoma = tested on: MALME-3M melanoma
MDA-MB-435 = tested on: MDA-MB-435
HOP-92 NSCLC = tested on: HOP-92 NSCLC
SK-MEL-5 melanoma = tested on: SK-MEL-5 melanoma
UACC-62 melanoma = tested on: UACC-62 melanoma
RPMI-8226 leukemia = tested on: RPMI-8226 leukemia
HCT-116 colon = tested on: HCT-116 colon
KM12 colon = tested on: KM12 colon
SF-539 CNS = tested on: SF-539 CNS
A549 NSCLC = tested on: A549 NSCLC
MOLT-4 leukemia = tested on: MOLT-4 leukemia
HOP-62 NSCLC = tested on: HOP-62 NSCLC
SF-295 CNS = tested on: SF-295 CNS
LOX IMVI melanoma = tested on: LOX IMVI melanoma
NCI-H522 lung = tested on: NCI-H522 lung

SMILES: C/C(Cc1ccc(Cl)cc1)=C(\c1ccc(OCCN2CCCCCC2)cc1)c1ccc(OC(=O)c2ccccc2)cc1
- TGI (UACC-257 melanoma): 13 µM
- GI50 (BT-549 breast): 6.27 µM
- TGI (BT-549 breast): 12.7 µM
- GI50 (HS 578T breast): 4.29 µM
- TGI (HS 578T breast): 14.4 µM
- GI50 (SW-620 colon): 2.52 µM
- TGI (SW-620 colon): 9.7 µM
- GI50 (SK-OV-3 ovarian): 5.8 µM
- TGI (SK-OV-3 ovarian): 13.2 µM
- GI50 (MDA-MB-231 breast): 2.15 µM
- TGI (MDA-MB-231 breast): 8.22 µM
- GI50 (T-47D breast): 1.43 µM
- TGI (T-47D breast): 9.73 µM
- GI50 (UO-31 renal): 1.39 µM
- TGI (UO-31 renal): 7.3 µM
- GI50 (U251 CNS): 2.61 µM
- TGI (U251 CNS): 8.96 µM
- GI50 (RXF 393 renal): 2.49 µM
- TGI (RXF 393 renal): 9.15 µM
- GI50 (NCI/ADR-RES ovarian): 3.24 µM
- TGI (NCI/ADR-RES ovarian): 11.3 µM
- GI50 (TK-10 renal): 6.03 µM
- TGI (TK-10 renal): 13.3 µM
- GI50 (OVCAR-3 ovarian): 3.78 µM
- TGI (OVCAR-3 ovarian): 10.2 µM
- GI50 (SR leukemia): 1.25 µM
- TGI (SR leukemia): 3.8 µM
- GI50 (MALME-3M melanoma): 1.76 µM
- TGI (MALME-3M melanoma): 6.56 µM
- GI50 (MDA-MB-435): 2.65 µM
- TGI (MDA-MB-435): 9.27 µM
- GI50 (HOP-92 NSCLC): 1.1 µM
- TGI (HOP-92 NSCLC): 4.43 µM
- GI50 (SK-MEL-5 melanoma): 2.3 µM
- TGI (SK-MEL-5 melanoma): 8.48 µM
- GI50 (UACC-62 melanoma): 1.3 µM
- TGI (UACC-62 melanoma): 3.9 µM
- GI50 (RPMI-8226 leukemia): 1.16 µM
- TGI (RPMI-8226 leukemia): 3.28 µM
- GI50 (HCT-116 colon): 1.34 µM
- TGI (HCT-116 colon): 4.54 µM
- GI50 (KM12 colon): 2.36 µM
- TGI (KM12 colon): 9.23 µM
- GI50 (SF-539 CNS): 5.18 µM
- TGI (SF-539 CNS): 11.4 µM
- GI50 (A549 NSCLC): 4.27 µM
- TGI (A549 NSCLC): 12.6 µM
- GI50 (MOLT-4 leukemia): 1.29 µM
- TGI (MOLT-4 leukemia): 5.95 µM
- GI50 (HOP-62 NSCLC): 5.98 µM
- TGI (HOP-62 NSCLC): 12.3 µM
- GI50 (SF-295 CNS): 2.27 µM
- TGI (SF-295 CNS): 8.48 µM
- GI50 (LOX IMVI melanoma): 1.25 µM
- TGI (LOX IMVI melanoma): 3.22 µM
- GI50 (NCI-H522 lung): 5.78 µM
- TGI (NCI-H522 lung): 12.9 µM
